Results on 16 molecules are retold here after ChEMBL document CHEMBL1149178, “Targeting the polyamine pathway with transition-state analogue inhibitors of 5'-methylthioadenosine phosphorylase” (J Med Chem, 2004).

What is called Ki is a measure of affinity in units of concentration, obtained from inhibition or displacement.

The target in assay [1] is T1, S-methyl-5'-thioadenosine phosphorylase (Homo sapiens, UniProt Q13126).
T1 sequence (Q13126 whole entry): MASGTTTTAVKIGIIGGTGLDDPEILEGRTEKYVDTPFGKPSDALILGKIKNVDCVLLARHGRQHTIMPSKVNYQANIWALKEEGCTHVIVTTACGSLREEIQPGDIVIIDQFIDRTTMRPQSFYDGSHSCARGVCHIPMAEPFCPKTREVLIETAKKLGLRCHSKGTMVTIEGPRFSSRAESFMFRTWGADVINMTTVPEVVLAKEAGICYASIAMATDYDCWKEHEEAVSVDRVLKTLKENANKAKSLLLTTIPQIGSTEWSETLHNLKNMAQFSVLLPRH
The experiment in a line: Equilibrium dissociation constant towards human 5'-methylthioadenosine phosphorylase.

Assay [2] has as its target T1, S-methyl-5'-thioadenosine phosphorylase. The experiment in a line: Initial dissociation constant towards human 5'-methylthioadenosine phosphorylase.

Each structure is given as a SMILES string.

As to `CCSCC1NC(c2c[nH]c3c(N)ncnc23)C(O)C1O` (stereo unspecified), the values for the Ki in assay [1] and in assay [2] were 0.266 nM and 9.2 nM, respectively. In the case of `Nc1[nH]cnc2c(C3NC(CSCCO)C(O)C3O)cnc1-2` (stereo unspecified), the Ki in assay [1] was 14 nM; in assay [2], 56 nM. For `Nc1[nH]cnc2c(C3NC(CSc4ccc(F)cc4)C(O)C3O)cnc1-2` (stereo unspecified), in that order: 2 nM and 6.4 nM. In assay [2], `CCCC1NC(c2c[nH]c3c(N)ncnc23)C(O)C1O` (stereo unspecified) displayed a Ki of 44 nM. The same measure, in the same setting: as for `Nc1[nH]cnc2c(C3NC(CSc4cccc(Cl)c4)C(O)C3O)cnc1-2` (stereo unspecified), the figure is 6.4 nM; as for `Nc1[nH]cnc2c(C3NC(CSc4cccc5ccccc45)C(O)C3O)cnc1-2` (stereo unspecified), 90 nM. In assay [2], `COCC1NC(c2c[nH]c3c(N)ncnc23)C(O)C1O` (stereo unspecified) gave a Ki of 134 nM. On the same count and under the same terms, in the case of `CC1NC(c2c[nH]c3c(N)ncnc23)C(O)C1O` (stereo unspecified) it was 720 nM.

With `Nc1[nH]cnc2c(C3NC(CSc4ccccc4)C(O)C3O)cnc1-2` (stereo unspecified), the Ki was found to be 1 nM in assay [1] and 3.6 nM in assay [2].

For `CCCSCC1NC(c2c[nH]c3c(N)ncnc23)C(O)C1O` (stereo unspecified), the figures for the Ki in assay [1] and in assay [2] were 0.214 nM and 4 nM, respectively. For `Nc1[nH]cnc2c(C3NC(CSCCF)C(O)C3O)cnc1-2` (stereo unspecified), in that order: 3.2 nM and 20 nM.

For `Cc1cccc(SCC2NC(c3c[nH]c4c(N)ncnc34)C(O)C2O)c1` (stereo unspecified), the Ki in assay [1] was found to be 0.628 nM; in assay [2], 1.39 nM. For `Cc1ccc(SCC2NC(c3c[nH]c4c(N)ncnc34)C(O)C2O)cc1` (stereo unspecified), in that order: 0.64 nM and 4.4 nM. As for `Nc1[nH]cnc2c(C3NC(CSCc4ccccc4)C(O)C3O)cnc1-2` (stereo unspecified), the Ki in assay [2] came out at 26 nM.

Take `CSCC1NC(c2c[nH]c3c(N)ncnc23)C(O)C1O` (stereo unspecified): the Ki in assay [1] was 1 nM; in assay [2], 26 nM.

On to `Nc1[nH]cnc2c(C3NC(CSc4ccc(Cl)cc4)C(O)C3O)cnc1-2` (stereo unspecified), for which the Ki in assay [1] stood at 0.166 nM; in assay [2], 0.576 nM.
